In US7259146B2, “Neuroprotective peptides” (Ortho-McNeil Pharmaceutical, Inc., priority 2000, dated 2007):
Entries after “also recorded” stand apart in the source; their conditions may differ.

Experiments:
bclXL = test: EPO induced gene expression in PC12 cells (quantitative RT-PCR); type: cell-based, rat; settings: PC-12 cells
Experimental: (§1) PC-12 cells (from a rat Pheochromocytoma) were cultured on poly-D-Lysine coated tissue culture plastic in DMEM containing 10% FBS and 5% Horse serum. To induce the neuronal phenotype in PC-12 cells, serum was removed and the cells were treated with NGF (50 ng/ml). Cells were grown for 7 days in the presence of the NGF then used for experiments.
(§2) PC-12 cells were cultured as described in Example 1 in a 10 cm poly-D-lysine coated tissue culture dish. Cells were incubated in the presence of 1 U/ml of EPO for 24 hr. Total RNAn was then isolated using a Qiagen RNAeasy mini prep kit and used for RT-PCR.
(§3) Real time reverse transcription and PCR were performed in a single reaction using a light cycler and an RNA amplification kit from Roche Molecular Biochemicals. RNA was quantitated and added in equal amounts to reaction mix that includes the dsDNA specific dye SYBR green I. Specific PCR reaction products are quantitated by detecting the amount of fluorescence in the reaction at each PCR cycle. Final analysis was performed using the data analysis software included with the light cycler instrument.

bak = test: as above; type: cell-based, rat; settings: PC-12 cells
Experimental: as §1, §2, §3

[1] = Plasma determinations (EPO ELISA) in ischemia studies; type: in vivo, rat
Description: Plasma Determinations: Blood samples were collected from each rat via the orbital sinus at the time of sacrifice. Plasma was separated out, frozen and analyzed by EPO ELISA for determination of plasma concentration (U/ml).

[2] = cited from earlier work
PC-12 cells = test: NGF withdrawal in PC-12 cells; type: cell-based, rat; settings: for protection against NGF withdrawal-induced cell death (in words): treated 24 hr before NGF removal, viable cells at 12, 24, 48, 72 hr
Experimental: as §1
PC-12 cells were cultured as described above in a 96 well poly-d-lysine coated multi-well plate and treated with rhEPO (1 pm to 10 nm) for 24 hr prior to NGF withdrawal. On the day of the experiment the cells were washed with buffer 3 times to remove NGF and then cultured in fresh media without NGF. Immediately following NGF washout cells were counted (t=0) to determine the number of living cells. Cell viability was based on morphological characteristics including phase brightness, presence of axons, and absence of blebbing. Cell counts were performed at 12 hr, 24 hr, 48 hr and 72 hr and the number of viable cells were scored.

rat hippocampal cultures = test: Neurite outgrowth assay (MAP2-FITC immunofluorescence), hippocampal cultures; type: cell-based
Description: Dissociated hippocampal and cortical cell cultures were established from embryonic day 18 rat fetuses as previously described (Mattson et al., 1994). Briefly, fetuses were removed via cesarean section from pregnant moms (Sprague-Dawley) anesthetized with halothane according to the AVMA Panel on Euthanasia. Pups were decapitated and the brains were removed and placed in HEPES-buffered Hank's Balanced Salt solution (HBSS; Gibco). The hippocampi and cortices were dissected out and pooled according to tissue-type. Tissue was trypsinized for 15 min (1 mg/ml trypsin-HBSS; Worthington), rinsed with fresh HBSS, incubated in trypsin inhibitor (1 mg/ml; Sigma) for 5 min, rinsed again with fresh HBSS and then triturated in 1 ml fresh HBSS with a fire-polished glass pipette. Dissociated cells were seeded at 30,000 cells/well onto poly-D-lysine coated 96-well plates (Collaborative BioScience). Each well contained 100 μl of Eagle's Minimal Essential Media (MEM; Gibco) supplemented with 26 mM NaHCO3 (Sigma), 56 mM glucose (Sigma), 15 mM KCl (Sigma), 1 mM sodium pyruvate (Sigma), 1.1 mM L-glutamine (Sigma), 10% (v/v) heat-inactivated fetal bovine serum (Hyclone), and 0.001% gentamicin sulfate (Sigma) (pH 7.4). Cells were allowed to attach for 24 h in a humidified 37° C. 5% CO2 incubator before experimental treatment. The culture media was aspirated and exchanged with fresh media every three days.
Twenty-four hours after plating, cultures were treated with vehicle (PBS+0.1% BSA), 100 ng of various growth factors (brain derived neurotrophic factor (BDNF; Promega), glial-derived neurotrophic factor (GDNF; Promega), nerve growth factor (NGF; Boehringer Mannheim), basic fibroblast growth factor (bFGF; Boehringer Mannheim), insulin-like growth factor-1 (IGF-1; Boehringer Mannheim), neurotrophin-3 (NT3; Calbiochem), neurotrophin-4 (NT4; Calbiochem), ciliary neurotrophic factor (CNTF; Calbiochem), epidermal growth factor (EGF; Calbiochem), vascular endothelial growth factor (VEGF; Calbiochem)), or rhEPO (prepared same as above; 10 fM-10 nM)). Each treatment condition was run in quadruplicate or octuplicate. On the third day in culture, the media was aspirated off and replaced with fresh media and test compound. At one week in culture, the cells were fixed with 10% phosphate-buffered formalin for 15 min, then rinsed with DPBS (Sigma) and placed in blocking serum for 30 min (horse serum; 1:50 dilution in DPBS; Vector Labs). Cultures were rinsed again with DPBS and then incubated in primary antibody for 2 hr (microtubule-associated protein-2 (MAP-2) is a selective marker for dendritic processes; anti-mouse monoclonal (Chemicon); 1:1000 dilution of MAP-2 in antibody diluent (Zymed)). Negative control wells were incubated in antibody diluent alone. Background signal was determined by blank wells (cell-free) incubated with or without antibody. Cultures were rinsed again with DPBS and then placed in fluorescein for 1 hr (FITC; anti-mouse IgG; rat adsorbed; 1:50 dilution in DPBS; Vector Labs). Cultures were rinsed a final time with DPBS and then the plates were read on a Cytofluor 4000 fluorescence plate reader. Neurite outgrowth was expressed as percent change from control (vehicle; mean fluorescence±SD).
Dissociated hippocampal and cortical cell cultures were established from embryonic day 18 rat fetuses as previously described (Mattson et al., 1994). Briefly, fetuses were removed via cesarean section from pregnant moms (Sprague-Dawley) anesthetized with halothane according to the AVMA Panel on Euthanasia. Pups were decapitated and the brains were removed and placed in HEPES-buffered Hank's Balanced Salt solution (HBSS; Gibco). The hippocampi and cortices were dissected out and pooled according to tissue-type. […]

[3] = 1 nm EPO for 24 hr (FIG. 3 legend)

Substance: EPO: purified, recombinant human EPO (rhEPO), formulated and distributed under the trademarks EPREX, ERYPO or PROCRIT
- increase in the expression of the anti-apoptotic gene, bclXL (bclXL; [3]): 6 fold
- increase in the expression of the anti-apoptotic gene, bclXL (bclXL; EPO 1 U/ml for 24 hr): 6 fold
- decrease in the expression of the pro-apoptotic Bak (bak; [3]): greater than 5 fold
- decrease in the expression of the pro-apoptotic gene, bak (bak; EPO 1 U/ml for 24 hr): 5 fold
- plasma concentrations (terminal) ([1]; Study I, continuous infusion): correlated with the protective effect
- plasma concentrations (terminal) ([1]; Study II, single iv bolus 1000, 2500 or 5000 U/kg): low
- tolerability in studies conducted to date ([2]; patients): well tolerated
- antibody titers against Epoetin alfa ([2]; subjects treated for up to 2 years): No antibody titers
- optimum / peak concentration for the neuroprotective effect (PC-12 cells; growth factor withdrawal): 10 pm
- neuroprotective effect at 1 nm (PC-12 cells; growth factor withdrawal, 1 nm): no significant effect
- dose response curve for the neuroprotective effect (PC-12 cells; growth factor withdrawal, protection decreasing above 10 pm): bi-phasic
- protection against NGF withdrawal-induced cell death (in words) (PC-12 cells): significant decrease in cell death; also recorded: increased the number of viable cells at each time point
- protection against NGF withdrawal-induced cell death (in words) (PC-12 cells; listed as rhEPO): protects rat PC12 cells against NGF withdrawal-induced cell death
- overall neurite outgrowth response, hippocampal versus cortical cultures (rat hippocampal cultures; comparison of hippocampal and cortical cultures): larger outgrowth response in the hippocampal cultures
- neurite outgrowth (in words) (rat hippocampal cultures; hippocampal cultures): significant increase in neurite outgrowth; also recorded: promotes neurite outgrowth
- concentration of maximal neurite outgrowth promoting activity (rat hippocampal cultures; hippocampal cultures, concentration dependent): maximal activity observed at pM levels
- neurite outgrowth response over control (rat hippocampal cultures; hippocampal cultures, rhEPO 10 fM-10 nM, one week in culture): 12–44%
- outgrowth promoting activity compared to known growth factors (rat hippocampal cultures; hippocampal cultures, growth factors 100 ng): superior to several growth factors including BDNF, NGF and VEGF
